The results in this text go back to US20250120967A1, “TYROSINE KINASES INHIBITORS AND USES THEREOF” (GREAT NOVEL THERAPEUTICS BIOTECH & MEDICALS CORPORATION, priority 2023, published 2025).

Structures are written as SMILES.

Holding throughout (assay): Tyrosine kinase inhibition assay
What all share (assay type): biochemical
Conditions in all cases: single concentration 1.0 μM, read-out: percent inhibition

The target in one test is T1, EPHA8 (Homo sapiens, UniProt P29322).
T1 sequence (P29322 28-1005): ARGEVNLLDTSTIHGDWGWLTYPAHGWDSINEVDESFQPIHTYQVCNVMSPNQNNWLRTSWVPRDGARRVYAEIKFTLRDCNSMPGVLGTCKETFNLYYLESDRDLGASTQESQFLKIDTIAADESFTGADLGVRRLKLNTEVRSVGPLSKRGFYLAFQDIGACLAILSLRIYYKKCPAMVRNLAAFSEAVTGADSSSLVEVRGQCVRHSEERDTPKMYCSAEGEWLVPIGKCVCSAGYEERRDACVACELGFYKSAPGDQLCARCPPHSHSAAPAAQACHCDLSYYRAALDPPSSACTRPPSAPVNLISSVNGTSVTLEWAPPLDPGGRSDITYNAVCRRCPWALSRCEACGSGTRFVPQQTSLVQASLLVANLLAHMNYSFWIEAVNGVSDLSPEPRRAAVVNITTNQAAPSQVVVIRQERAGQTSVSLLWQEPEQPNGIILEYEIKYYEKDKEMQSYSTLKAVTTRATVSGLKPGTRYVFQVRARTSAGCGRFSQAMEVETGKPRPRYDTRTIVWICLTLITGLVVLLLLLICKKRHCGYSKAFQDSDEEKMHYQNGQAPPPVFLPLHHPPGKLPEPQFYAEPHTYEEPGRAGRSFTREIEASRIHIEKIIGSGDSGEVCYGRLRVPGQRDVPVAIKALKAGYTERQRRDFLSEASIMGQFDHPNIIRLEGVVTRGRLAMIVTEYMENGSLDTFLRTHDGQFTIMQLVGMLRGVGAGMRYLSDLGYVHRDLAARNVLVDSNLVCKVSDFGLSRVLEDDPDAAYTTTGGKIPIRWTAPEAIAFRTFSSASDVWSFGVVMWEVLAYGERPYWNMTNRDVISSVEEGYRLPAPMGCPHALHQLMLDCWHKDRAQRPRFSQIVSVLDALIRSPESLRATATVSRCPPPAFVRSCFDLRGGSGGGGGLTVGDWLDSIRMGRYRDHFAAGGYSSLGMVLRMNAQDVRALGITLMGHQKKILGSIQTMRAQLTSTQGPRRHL
Put shortly: (§1)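 Values are percent inhibition at 1.0 μM compound, with inhibition above 80% defined as a hit. Peptide substrate phosphorylation was assessed by Z′-LYTE at apparent-Km ATP in HEPES pH 7.5 buffer containing MgCl2, EGTA and BRIJ-35.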

The target of another test is T2, MUSK (Homo sapiens, UniProt O15146).
T2 sequence (O15146 24-869): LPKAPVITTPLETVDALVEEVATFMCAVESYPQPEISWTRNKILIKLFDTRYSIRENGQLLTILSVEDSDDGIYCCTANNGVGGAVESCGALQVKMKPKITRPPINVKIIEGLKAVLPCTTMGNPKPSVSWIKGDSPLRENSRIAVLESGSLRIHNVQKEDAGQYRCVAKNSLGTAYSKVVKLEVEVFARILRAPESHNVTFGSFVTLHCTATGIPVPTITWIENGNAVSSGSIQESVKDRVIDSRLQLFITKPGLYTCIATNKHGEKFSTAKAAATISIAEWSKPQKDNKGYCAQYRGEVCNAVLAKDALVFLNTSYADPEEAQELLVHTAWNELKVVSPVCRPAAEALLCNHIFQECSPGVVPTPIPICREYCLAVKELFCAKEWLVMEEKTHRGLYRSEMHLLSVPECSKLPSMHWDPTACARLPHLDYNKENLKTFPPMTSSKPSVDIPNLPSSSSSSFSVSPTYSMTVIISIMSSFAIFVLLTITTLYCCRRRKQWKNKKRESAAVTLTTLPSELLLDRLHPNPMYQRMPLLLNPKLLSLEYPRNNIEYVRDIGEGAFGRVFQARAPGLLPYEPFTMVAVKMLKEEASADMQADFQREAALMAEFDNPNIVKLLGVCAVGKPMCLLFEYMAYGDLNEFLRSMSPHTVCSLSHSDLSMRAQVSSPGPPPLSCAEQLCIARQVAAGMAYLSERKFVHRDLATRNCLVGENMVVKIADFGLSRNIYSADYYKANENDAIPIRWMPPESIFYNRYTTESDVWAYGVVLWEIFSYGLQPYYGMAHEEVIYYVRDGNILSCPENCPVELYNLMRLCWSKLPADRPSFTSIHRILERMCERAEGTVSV
Put shortly:
as §1

A further test has as its target BRAF (Homo sapiens, UniProt P15056). In outline: as §1
The next test deals with T3, BMX (Homo sapiens, UniProt P51813).
T3 sequence (P51813 1-675): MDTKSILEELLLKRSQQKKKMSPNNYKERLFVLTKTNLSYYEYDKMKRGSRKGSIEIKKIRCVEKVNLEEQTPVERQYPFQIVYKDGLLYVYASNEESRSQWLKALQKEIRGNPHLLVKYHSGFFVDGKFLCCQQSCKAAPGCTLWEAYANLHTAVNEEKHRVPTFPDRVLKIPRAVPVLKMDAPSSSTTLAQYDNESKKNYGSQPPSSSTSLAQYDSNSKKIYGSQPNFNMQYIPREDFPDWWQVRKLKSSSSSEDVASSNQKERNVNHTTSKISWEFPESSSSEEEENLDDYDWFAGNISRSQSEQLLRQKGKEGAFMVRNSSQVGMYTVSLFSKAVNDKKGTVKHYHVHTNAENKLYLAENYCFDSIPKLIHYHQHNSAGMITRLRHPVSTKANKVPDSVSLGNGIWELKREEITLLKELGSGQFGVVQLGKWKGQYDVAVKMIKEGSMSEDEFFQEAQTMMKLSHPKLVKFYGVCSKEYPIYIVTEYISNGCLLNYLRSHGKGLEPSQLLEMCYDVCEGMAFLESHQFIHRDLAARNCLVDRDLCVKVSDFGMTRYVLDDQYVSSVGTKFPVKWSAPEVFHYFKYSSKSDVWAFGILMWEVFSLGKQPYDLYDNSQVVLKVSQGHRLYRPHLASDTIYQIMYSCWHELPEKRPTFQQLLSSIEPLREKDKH
In outline:
as §1

BRAF, sequence (P15056 whole entry): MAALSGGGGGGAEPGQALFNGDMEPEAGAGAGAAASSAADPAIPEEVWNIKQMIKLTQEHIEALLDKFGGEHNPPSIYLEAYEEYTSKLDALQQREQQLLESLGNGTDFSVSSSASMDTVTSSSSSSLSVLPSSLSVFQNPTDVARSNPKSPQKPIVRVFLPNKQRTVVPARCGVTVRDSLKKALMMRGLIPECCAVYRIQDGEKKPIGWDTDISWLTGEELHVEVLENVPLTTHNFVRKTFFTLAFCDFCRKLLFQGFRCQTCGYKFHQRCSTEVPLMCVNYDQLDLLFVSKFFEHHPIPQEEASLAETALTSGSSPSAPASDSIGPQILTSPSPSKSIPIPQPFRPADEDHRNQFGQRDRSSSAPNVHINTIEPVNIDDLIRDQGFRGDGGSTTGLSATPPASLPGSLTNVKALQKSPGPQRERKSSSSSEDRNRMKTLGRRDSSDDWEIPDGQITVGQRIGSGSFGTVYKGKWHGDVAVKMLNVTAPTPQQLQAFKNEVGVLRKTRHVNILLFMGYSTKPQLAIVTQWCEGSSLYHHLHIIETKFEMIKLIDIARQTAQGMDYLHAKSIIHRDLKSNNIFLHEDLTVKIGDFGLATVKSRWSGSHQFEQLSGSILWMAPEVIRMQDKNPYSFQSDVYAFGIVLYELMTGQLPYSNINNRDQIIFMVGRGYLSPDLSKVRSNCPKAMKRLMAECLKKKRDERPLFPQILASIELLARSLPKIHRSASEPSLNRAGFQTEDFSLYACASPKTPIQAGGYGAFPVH

As usually defined, the inhibition is the relative decrease from the control value, in per cent. `COc1cc2nccc(Oc3ccc(NC(=O)C4(C(=O)Nc5ccc(F)cc5)CC4)cc3)c2cc1OC` [Cabozantinib, reference compound]: the inhibition at 1 µM was 104% on EPHA8, 92% at MUSK, 13% at BRAF and 36% on BMX.
Take `COc1cc2nccc(Oc3ccc(NC(=O)C4(NC(=O)c5ccc(F)cc5)CC4)cc3F)c2cc1OC` [Cbo-02, N-(1-((4-((6,7-diMethoxyquinolin-4-yl)oxy)-3-fluorophenyl)carbamoyl)cyclopropyl)-4-fluorobenzamide]: the inhibition at 1 µM on EPHA8 came out at 42%; at MUSK, 31%; on BRAF, 4%; on BMX, 22%.
For the compound `COc1cc2nccc(Oc3ccc(NC(=O)C4(NC(=O)c5ccc(F)cc5)CC4)cc3F)c2cc1Oc1ccc(N)cc1F` [Cbo-10], the inhibition at 1 µM at EPHA8 was 76%; at MUSK it was 68%; on BRAF, 4%; on BMX, 33%.
On to `COc1cc2nccc(Oc3ccc(NC(=O)C4(NC(=O)c5ccc(F)cc5)CC4)cc3F)c2cc1Oc1c(F)cc(N)cc1F` [Cbo-14], for which the inhibition at 1 µM stood at 82% on EPHA8, 76% on MUSK, 1% on BRAF and 42% at BMX.
`COc1cc2nccc(Oc3ccc(NC(=O)C4(C(=O)Nc5ccc(F)cc5)CC4)cc3F)c2cc1Oc1ccc(N)cc1F` [Cbo-23]: the inhibition at 1 µM at EPHA8 was determined as 100%; on MUSK, 85%; on BRAF, 3%; on BMX, 42%.
